The values below come from patent US5438048A, “Methylenebisphosphonic acid derivatives” (Leiras Oy, priority 1990, dated 1995).

A short description of assay [1]: Inhibition of hydroxyapatite growth (calcium phosphate crystal formation and precipitation inhibiting activity). It counts as biochemical. On the set-up: key to the marks not given beside the values. The settings on record: at 100 μM.
Assay [2] is described as follows: Binding to hydroxyapatite (effect of bisphosphonates and their derivatives on hydroxyapatite).
Another assay relates to mouse calvaria. The assay is described as follows: Parathyroid hormone stimulated bone resorption inhibition activity in vitro in mouse calvaria. Type of assay: cell-based. The protocol:
(§1) In addition, the parathyroid hormone stimulated bone resorption inhibition activity in vitro in mouse calvaria, as well as inhibition of retinoid induced bone resorption in thyroparathyroidectomised rats in vivo were determined (Reynolds & Dingle (Calc Tiss Res 1970; 4:339, and Trechsel et al. (J Clin Invest 1987; 80:1679)) (Table 2).

Assay [3] relates to retinoid induced bone resorption. The assay is described as follows: Inhibition of retinoid induced bone resorption in thyroparathyroidectomised rats in vivo. The settings on record: 150 μmole/kg. The protocol:
as §1

On to `CC(C)OP(=O)(O)C(C)(O)P(=O)(O)O` (stereo not shown) [(1-Hydroxyethylidene)bisphosphonic acid monoisopropyl ester], for which the Inhibition of growth entry in assay [1] is “+++”. Further, the affinity in assay [2], expressed as Ki, was 7.3 µM.
Take `CCCCC(O)(P(=O)(O)O)P(=O)(O)O` [(1-Hydroxypentylidene)bisphosphonate, (1-Hydroxypentylidene)-bisphosphonate, reference compound]: in the assay on mouse calvaria (100 μm), the “Inhibition of resorption (%)” value turned out to be 56%.
With `CCCCC(O)(P(=O)(O)O)P(=O)(O)OC(C)C` (stereo not shown) [(1-hydroxypentylidene)bisphosphonic acid monoisopropyl ester], in assay [1], the Inhibition of growth result was “++”. The same molecule registered a Ki in assay [2] of 15.4 µM.
Regarding `CCCCC(O)(P(=O)(O)O)P(=O)(O)OC` (stereo not shown) [(1-hydroxypentylidene)bisphosphonic acid monomethyl ester], the Inhibition of growth entry in assay [1] is on record as “+++”. In addition, the “Inhibition of resorption (%)” value in assay [3] amounted to 52%; in the assay on mouse calvaria (100 μm), 7%; in the assay with mouse calvaria (1000 μm), 47%. For the same molecule, the Ki in assay [2] was 11.8 µM.
In the case of `O=P(O)(O)C(Cl)(Cl)P(=O)(O)O` [Clodronate, reference compound], the Inhibition of growth entry in assay [1] was “+++”. In assay [2], this molecule returned a Ki of 1.3 µM.
Take `CC(O)(P(=O)(O)O)P(=O)(O)O` [Etidronate, reference compound]: in assay [2], the affinity corresponds to a Ki of 0.9 µM.
